# Test results: patent US9290464B2 (priority 2010, dated 2016)
# Key:
# MPTP-induced mouse [1] = assay: Number of neurites and spines per neuron in MPTP-induced mouse (confocal microscopy); type: in vivo, C57BL/6 mice; conditions: 1 mg/kg oral once a day for 10 days after MPTP
# Experimental: To observe whether or not the number of neurites and spines per neuron in the tissues was increased, a coronal slice with a thickness of 200 um containing striatum or substantia nigra was prepared using a vibratome. Each group of mice was sacrificed, and the brain was taken out of each group and then placed in a cold, highly-concentrated sucrose dissection buffer bubbled with carbogen (5% CO2 and 95% O2) (87 mM NaCl, 2.5 mM KCl, 1.25 mM NaH2PO4, 25 mM NaHCO3, 1 mM CaCl2, 3 mM MgCl2, 10 mM dextrose, and 75 mM sucrose). While the vibratome was performed, a slicing chamber was filled with the uniformly carbogenated sucrose dissection buffer. After the slicing process was terminated, all the slices were washed with PBS, and fixed with 4% paraformaldehyde in a PBS solution. The fixed brain slices were placed on a 1.5% agarose (in PBS) block. Images thereof were obtained using a confocal microscope (ZEISS LSM 510 META) by using Zeiss LSM image browser software (Carl Zeiss Microimaging, Germany, version 4.0 SP2).
# MPTP-induced mouse [2] = assay: Concentration of dopamine in striatum of MPTP-induced mouse (HPLC); type: in vivo, C57BL/6 mice; conditions: 1 mg/kg oral once a day, FIG. 4
# Experimental: 7 days after the compounds described above are respectively administered to the three groups, the mice in each group were sacrificed by cervical dislocation and brain tissues were immediately taken out of the mice. Striatum was collected from the brain tissue, 0.5 ml of a HPLC assay diluent (0.1 M HClO4, 0.1 mM EDTA) was added to the striatum, and a tissue homogenate was then prepared using an ultrasonic processor. The homogenate was centrifuged at 12,000 rpm for 15 minutes, and the supernatant was filtered with a nitrocellulose filter (0.2 um, Millipore). For HPLC analysis, HR-80 column (80 mm×4.6 mm, particle size: 3 μm ESA, USA) was used, the flow rate of a mobile phase (0.07 M monobasic sodium phosphate, 1 mM sodium octasulfonic acid, 0.1 uM EDTA, 5% acetonitrile, pH 3.2) was maintained at 0.7 ml/min, and the electrode potential of an electrochemical detector (Coulochem III, ESA, USA) was at E1=−100 mV, E2=350 mV.
# Bcl-xL = assay: Amount of Bcl-xL protein by western blotting in apoptosis-induced cells; type: cell-based, human; conditions: serum-free medium, 24 hours; FIG. 11
# Text: Meanwhile, a variety of signal transduction proteins are involved in a process for mediating or inhibiting apoptosis, and representative examples thereof include Bcl-2 gene family proteins (Journal of Bioenergetics and Biomembranes, 37:179-190 (2005); J. Cell Mol. Med., 7:249-257 (2003); Genes and Development, 13:1899-1911 (1999)). Thus, 0.1, 1 and 10 of CBI or 0.1, 1 and 10 of rasagiline were respectively added to the apoptosis-induced cells as described above, the resulting cells were further incubated in 5% of CO2 at 37° C. for 24 hours, mRNA was extracted from the cultured cells or a cell extract was obtained therefrom, and thus the amount of Bcl-2 mRNA and the amounts of Bcl-2 and Bcl-xL proteins were measured. The amount of Bcl-2 mRNA was measured by real-time RT-PCR, and the amounts of Bcl-2 and Bcl-xL proteins were measured by western blotting.
# For western blotting, the SH-SY5Y cells were lysed with RIPA buffer (50 mM Tris-Cl pH 7.4, 1% NP-40, 0.25% sodium deoxycholate, 0.1% SDS, 150 mM NaCl, 1 mM EDTA) and then centrifuged to obtain a cell extract. […]
smiles,measurement,setting,value
"NC(=O)OCc1cc(-c2ccc(OCc3ccccc3)cc2)no1 [CBI, carbamic acid 3-(4-benzyloxy-phenyl)-isoxazole-5-yl methylester]",number of neurites,MPTP-induced mouse [1]; FIG. 23,increased
same,number of spines,MPTP-induced mouse [1]; FIG. 24,recovered to the level of normal cells
same,restoration of the concentration of dopamine in striatum compared with normal mice,MPTP-induced mouse [2],about 70%
same,amount of Bcl-xL relative to control,Bcl-xL,larger than that in the control
